Common to all, as to assay: inhibition of tumour cell growth, NCI panel, 48 h
Test [1] relates to A498 renal.
Test [2] relates to BT-549 breast.
Test [3] relates to CCRF-CEM leukemia.
Test [4] has as its system HCT-116 colon.
The subject of test [5] is HOP-62 NSCLC.
Test [6] has as its system HOP-92 NSCLC.
Test [7] deals with K-562 leukemia.
For test [8], the system named is M14 melanoma.
Test [9] relates to MCF7 breast.
In test [10] the test system is UACC-257 melanoma.

This note sets out measurements from PubChem BioAssay (NCI).

SMILES strings stand for the structures.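 A five-concentration, 48-hour dose response in 96-well plates underlies each endpoint, interpolated linearly between surrounding concentrations. The concentration for full growth arrest is given as TGI.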

Regarding `N#Cc1c(-c2ccc(Cl)cc2)[nH]c(=O)n(C2OC(CO)C(O)C(O)C2O)c1=O` (configuration not stated), the TGI in test [1], in [2], in [3], in [4], in test [5] and in test [6] was more than 100 µM each time. The TGI in [7], in [8], in test [9] and in test [10] was more than 100 µM each time.

On to `CN(C)CCn1c(=O)c2ccc(NCCN3CCNCC3)c3c(=O)c4ccccc4n(c1=O)c23`, for which the TGI in test [1] came out at 16.1 µM; in [2], 22.9 µM; in [3], 4.4 µM; in [4], 12.8 µM; in test [5], 22.8 µM; in test [6], 9.59 µM. The TGI in [7] amounted to 6.85 µM; in test [8] it was 29 µM; in test [9], 12.7 µM; in [10] it was 17.3 µM.

Turning to `O=c1ccn(COC(COCc2ccccc2)COCc2ccccc2)c(=O)[nH]1`, the TGI in test [1], in test [2], in test [3], in [4], in test [5] and in test [6] was more than 100 µM each time. The TGI in [7], in test [8], in test [9] and in test [10] was more than 100 µM throughout.

On to `O=C1CSC(c2ccccc2[N+](=O)[O-])N1c1ccc(-c2ccc(-n3c(-c4ccccc4)nc4ccccc4c3=O)cc2)cc1` (configuration not stated), for which the TGI in test [1], in [2], in test [3], in test [4], in test [5] and in test [6] was more than 100 µM each time. Moreover, the TGI in test [7], in test [8], in test [9] and in test [10] was more than 100 µM in each case.

In the case of `CCOc1ccc(N/C(=C(/C(Cl)=C(/Cl)N2CCCCC2)[N+](=O)[O-])n2nnc3ccccc32)cc1`, the TGI in test [1] is 34.9 µM; in [2], 34.6 µM; in test [4] it was 37.7 µM; in test [5], 42.6 µM; in [6] it was 42 µM; in [7], more than 100 µM. The TGI in [8] was 38.2 µM; in test [9] it was 39.4 µM; in test [10], 38.6 µM.

`COC1CN(C)C(=Nc2cccc3ccccc23)S1` (configuration not stated): the TGI in test [2], in [3], in test [4], in test [5], in test [6] and in test [7] was more than 10 µM in each case. The TGI in [8], in [9] and in [10] was more than 10 µM throughout.

For `CC[C@@]1(C)CCC2c3ccc(O)cc3CC[C@H]2C1C` (some centres not stated), the TGI is 34 µM in test [1]; 33.8 µM in test [2]; 33.4 µM in [3]; 31.9 µM in test [4]; 33 µM in test [5]; 19.5 µM in [6]. Moreover, the TGI in test [7] was 23.3 µM; in test [8], 30.3 µM; in [9], 30.3 µM; in test [10], 29.3 µM.

Take `CCC(=O)Nc1ccc(NC(C#N)c2cccc(Oc3ccccc3)c2)cc1` (configuration not stated): the TGI in test [1], in test [2], in test [3], in [4], in [5] and in test [6] was more than 100 µM each time. Moreover, the TGI in test [7], in [8] and in [9] was more than 100 µM throughout.

As for `CC(C)NC(=O)N(Nc1ccccc1)C(C)(C)C`, the TGI in test [1], in [2], in [3], in test [4], in [5] and in test [6] was more than 100 µM throughout. Moreover, the TGI in [7], in [8], in test [9] and in test [10] was more than 100 µM in each case.

As for `O=c1[nH]nc(-c2ccccc2)n1/N=C/c1cccs1`, the TGI was more than 100 µM in test [1]; 95.8 µM in [2]; more than 100 µM in test [3]; more than 100 µM in test [4]; more than 100 µM in [5]; more than 100 µM in test [7]. Also, the TGI in [8], in [9] and in [10] was more than 100 µM in each case.

With `COc1ccc(CCCNC(=O)c2cc(OC)c(OC)cc2CCO)cc1OC`, the TGI in [1], in test [2], in test [4], in test [5], in test [6] and in test [7] was more than 100 µM in each case. For the same compound, the TGI in [8], in test [9] and in [10] was more than 100 µM in each case.

For the compound `C=CCN(C(=O)OC(C)(C)C)[C@H](C)C(=O)N[C@@H](C)C(=O)OC`, the TGI in [1], in [2], in [3], in [4], in test [5] and in test [6] was more than 100 µM each time. The TGI in test [7], in test [8] and in [9] was more than 100 µM in each case.

Take `COc1ccc(N2C(=O)C3c4[nH]c5ccc(Br)cc5c4C4CCC(C(C)(C)C)CC4C3C2=O)cc1` (configuration not stated): the TGI in test [1], in [2], in [3], in test [4], in [5] and in test [7] was more than 100 µM each time. For the same compound, the TGI in [8], in test [9] and in [10] was more than 100 µM throughout.

`CCOC(=O)C(Cc1ccc(OC(=O)c2ccc(OC)cc2)cc1)NC(=O)C(F)(F)F` (configuration not stated): the TGI in [1], in test [2], in test [3], in test [4], in [5] and in test [6] was more than 100 µM each time. In addition, the TGI in test [7], in test [8], in [9] and in [10] was more than 100 µM each time.

Turning to `CCCCCCCCCCCCCCCCCCNC(=S)/N=C\C1=C(O)c2ccccc2C1=O`, the TGI was found to be 40 µM in [1]; 33.9 µM in test [2]; 21.5 µM in test [3]; 15.3 µM in test [4]; 22.2 µM in test [5]; 14.1 µM in test [6]. Moreover, the TGI in test [8] is 22 µM; in test [9] it was 29.5 µM; in test [10] it was 33.6 µM.

For `COC(=O)C1(C#N)C(C)(C)N=C(c2ccccc2)C12CCCCC2` (configuration not stated), the TGI in test [1], in [2], in test [3], in test [4], in test [5] and in test [6] was more than 100 µM in each case. Further, the TGI in test [7], in test [8], in [9] and in test [10] was more than 100 µM in each case.

For the compound `COc1cc(/C=N/n2c(-c3ccccc3)nn(C(C)=O)c2=O)cc(OC)c1OC`, the TGI in [1] is 23.3 µM; in test [2], more than 74.2 µM; in test [3] it was more than 100 µM; in test [4], more than 100 µM; in test [5], more than 100 µM; in test [6] it was more than 89.7 µM. Moreover, the TGI is more than 100 µM in [7], more than 58.9 µM in test [8], more than 37.9 µM in test [9] and more than 39.3 µM in test [10].

`CC1(C)Cc2nc3c(cc2C(=O)C1C=N/C(C#N)=C(\N)C#N)C(=O)C(C=N/C(C#N)=C(\N)C#N)C(C)(C)C3` (configuration not stated): the TGI is 15.4 µM in [1]; 5.51 µM in test [2]; more than 100 µM in test [3]; 2.96 µM in test [4]; 6.94 µM in [5]; 3.33 µM in test [6]. Also, the TGI in test [7] was more than 100 µM; in [8], 3.05 µM; in [9] it was 6.23 µM; in [10] it was 6.73 µM.

On to `O=C(O)CCSCc1ccccc1`, for which the TGI in [1], in test [2], in test [3], in test [4], in test [5] and in [7] was more than 100 µM each time. The TGI in test [8], in [9] and in [10] was more than 100 µM each time.

Turning to `OC(c1ccc(C(F)(F)F)cc1)C(F)(F)c1nc2ccccc2o1` (configuration not stated), the TGI in test [2], in test [3], in test [4], in test [5], in test [6] and in test [7] was more than 100 µM in each case. The TGI in test [8], in [9] and in [10] was more than 100 µM each time.

Consider `CCOC(=O)C1=CCOc2cc(N(C)C)ccc21`, for which the TGI is more than 100 µM in test [1]; more than 100 µM in test [2]; 64 µM in test [3]; more than 100 µM in [4]; more than 100 µM in [5]; more than 100 µM in [7]. Moreover, the TGI in [8], in test [9] and in test [10] was more than 100 µM in each case.

With `COc1ccc(C2SCC(=O)N2NC(=O)c2ccc(NC(C)=O)cc2)c(OC)c1` (configuration not stated), the TGI in test [1], in [2], in test [4], in test [5], in test [6] and in test [7] was more than 100 µM each time. Further, the TGI in test [8], in test [9] and in test [10] was more than 100 µM in each case.

For the compound `COC(=O)c1cc(C(=CCC[C@H]2CC[C@@]3(C)C(CCC4C3CC[C@@]3(C)C4CC[C@@H]3C(C)CCCC(C)C)C2)c2cc(Cl)c(O)c(C(=O)OC)c2)cc(Cl)c1O` (some centres not stated), the TGI in test [2], in test [3], in test [4], in [5], in test [6] and in [7] was more than 10 µM in each case. Besides, the TGI in test [8], in test [9] and in [10] was more than 10 µM in each case.

Take `N#CC(Cc1ccccc1)N(CCC1=CCCCC1)Cc1ccccc1` (configuration not stated): the TGI in [1], in [2], in [4], in test [5], in [6] and in test [7] was more than 100 µM each time. Also, the TGI in test [8], in test [9] and in test [10] was more than 100 µM throughout.

Turning to `CCOC(=O)C1=NN(c2ccc([N+](=O)[O-])cc2)[C@@]2(C)C[C@]3(c4ccccc4)N(c4ccc([N+](=O)[O-])cc4)N=C(C(=O)OCC)N3c3ccccc3N12`, the TGI in test [1], in [2], in test [3], in test [4], in [5] and in test [7] was more than 100 µM in each case. The TGI in test [8], in test [9] and in [10] was more than 100 µM in each case.

Take `NC(=O)NCCCC(NC(=O)OCCCCCCn1ccc(=O)[nH]c1=O)C(=O)O` (configuration not stated): the TGI in test [2], in test [3], in test [4], in test [5], in test [6] and in test [7] was more than 100 µM each time. Further, the TGI in test [8], in test [9] and in test [10] was more than 100 µM throughout.

Regarding `N#Cc1c(N2CCC(O)C2)c2ccccc2n2c1nc1ccccc12` (configuration not stated), the TGI in test [1] was 95.5 µM; in test [2], more than 100 µM; in [3], more than 100 µM; in test [4], more than 100 µM; in [5], 46.6 µM; in [6], 95.7 µM. The TGI in test [8], in test [9] and in [10] was more than 100 µM in each case.

Regarding `COC(O)C(=O)c1ccc2c(c1)CC1(C2)Cc2cc3c(cc2C1=O)CCC3` (configuration not stated), the TGI is 37.1 µM in test [1]; 31.8 µM in [2]; 48 µM in test [3]; 34.8 µM in test [4]; 38.8 µM in test [5]; 21.8 µM in [7]. Further, the figures for the TGI in test [8], in test [9] and in test [10] were 35.9 µM, 39.6 µM and 39.7 µM, respectively.
